Assay results: patent US20060281789A1, “Protein kinase inhibitors” (KYOWA HAKKO KOGYO CO., LTD, priority 2003, published 2006)
Structures can show the parent of a compound that is named as a salt.

Assays:
[1] = molecular target: T1, human Flt-3 (Homo sapiens, UniProt P36888); experiment: Inhibitory activity on Flt-3 (GST-fused kinase, time-resolved fluoroimmunoassay); format: biochemical; details: tested compound 10 μmol/L, ATP 10 μmol/L, sixty minutes
T1 construct: fused to the N-terminus of the intracellular domain (583-953 amino acids) thereof; made in house; host or cells: insect cells (baculovirus)
T1 sequence (P36888 583-953): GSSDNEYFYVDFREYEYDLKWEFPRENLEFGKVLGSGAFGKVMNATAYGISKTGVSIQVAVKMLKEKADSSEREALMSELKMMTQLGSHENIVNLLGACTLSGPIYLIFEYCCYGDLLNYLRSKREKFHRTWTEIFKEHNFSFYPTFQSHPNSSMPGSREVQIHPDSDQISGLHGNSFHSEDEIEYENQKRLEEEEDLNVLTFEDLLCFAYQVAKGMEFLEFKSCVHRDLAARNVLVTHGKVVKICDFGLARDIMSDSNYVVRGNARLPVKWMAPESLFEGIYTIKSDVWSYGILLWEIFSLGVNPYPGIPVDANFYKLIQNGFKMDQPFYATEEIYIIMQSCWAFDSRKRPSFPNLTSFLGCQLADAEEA
Method: Flt-3 inhibitory activities were determined in the following manner.
Flt-3 was prepared by allowing baculovirus to infect insect cells, which baculovirus expresses a protein comprising human Flt-3 with […]. […] Separately was prepared a solution containing, at final concentrations, GST-fused Flt-3 (100 μg/L), Tris-Cl (pH 7.5) (20 mmol/L), β-glycerophosphate (5 mmol/L), dithiothreitol (DTT) (1 mmol/L), Na3VO4 (0.1 mmol/L), MgCl2 (10 mmol/L), MnCl2 (10 mmol/L), ATP (10 μmol/L), bovine serum albumin (BSA) (0.1%), DMSO (0.1%), and a tested compound (10 μmol/L). The solution (each 60 μL) was placed into the wells of the plate for the determination of kinase reaction, followed by enzymatic reaction at room temperature for sixty minutes. After reacting, the reaction was stopped by the addition of 50 μL of a 25 mmol/L aqueous solution of ethylenediaminetetraacetic acid. […] The relative activity (%) of a well in which the enzyme and tested compound were added was determined by calculation with the value in a well to which the tested compound was not added being 100% and the value in a well to which the enzyme and the tested compound were not added being 0%. The Flt-3 inhibitory activity (%) of the tested compound was determined by subtracting the relative activity (%) from 100.

[2] = test system: K562; experiment: Cytostatic activity on human chronic myeloid leukemia cell line K562 (WST-1); format: cell-based; details: 10 μmol/L, 72 hours, read-out: K562 (%) cytostatic rate
Method: (§1) The cytostatic rates of a test compound on human acute myeloid leukemia cell lines MV-4-11 and ML-1, and human chronic myeloid leukemia cell line K562 were determined in the following manner.
(§2) Each cell was cultured using Roswell Park Memorial Institute's Medium (RPMI) 1640 (Gibco, Catalog No. 11875-093) containing 10% fetal bovine serum (Gibco, Catalogue No. 10437-028) and penicillin/streptomycin (1:1) (Gibco, Catalogue No. 15140-122). Each 80 μL of the MV-4-11 cell having a concentration of 7.5×10^4 cells/mL (or the ML-1 cell or K562 cell having a concentration of 2.5×10^4 cells/mL) was inoculated to wells of a TC MICROWELL 96U plate (Nalge Nunc International, Catalogue No. 163320) and was cultured in a 5% carbon dioxide gas incubator at 37° C. for 4 hours. As a blank, only RPMI medium (80 μL) was added to a well. Each 20 μL of a solution of the test compound in dimethyl sulfoxide (DMSO) which was prepared to make the final concentration to 3.16 μmol/L or 10 μmol/L, was added to the MV-4-11 cell, ML-1 cell and K562 cell, respectively. Each 20 μL of DMSO was added to the control well and the blank well to a final concentration of 0.1%. After adding the test compound, the cells were incubated in a 5% carbon dioxide gas incubator at 37° C. for 72 hours. After adding 20 μL of WST-1 reagent {4-[3-(4-iodophenyl)-2-(4-nitrophenyl)-2H-5-tetrazolio]-1,3-benzene disulfonate sodium salt) (Roche Diagnostics K.K., Catalogue No. 1644807) diluted to 50% with RPMI medium, the cells were further incubated at 37° C. for 2 hours. Then, the absorbances at 450 nm (reference wavelength: 690 nm) were determined with a microplate spectrophotometer SPECTRA max 340PC (Molecular Devices Corporation). The relative growth (%) of a well to which the test compound had been added was determined while setting the absorbance of a well to which not the test compound but DMSO alone had been added (control) at 100% and that of a well containing RPMI medium alone at 0%. The cytostatic rate (%) of the test compound was determined by subtracting the calculated relative growth from 100.

[3] = test system: MV-4-11; experiment: Cytostatic activity on human acute myeloid leukemia cell line MV-4-11 (WST-1); format: cell-based; details: MV4-11, 3.16 μmol/L, 72 hours, read-out: MV-4-11 (%) cytostatic rate
Method: as §1, §2

[4] = test system: ML-1; experiment: Cytostatic activity on human acute myeloid leukemia cell line ML-1 (WST-1); format: cell-based; details: ML1, 3.16 μmol/L, 72 hours, read-out: ML-1 (%) cytostatic rate
Method: as §1, §2

Compound | inhibition at 10 µM [1] [%] | other results
CN(C)CCOc1ccc(/C=C/c2n[nH]c3ccccc23)cc1 [Compound 2, (E)-3-(2-[4-(2-dimethylaminoethoxy)phenyl]vinyl}-1H-indazole hydrochloride] | 97.8 | –
CCOC(=O)COc1ccc(/C=C/c2n[nH]c3ccccc23)cc1 [Compound 3, ethyl (E)-4-[2-(1H-indazol-3-yl)vinyl]phenoxyacetate] | – | inhibition at 10 µM [2]: 14%; inhibition at 3.16 µM [3]: 37%
OCCOc1ccc(/C=C/c2n[nH]c3ccccc23)cc1 [Compound 4, (E)-3-{2-[4-(2-hydroxyethoxy)phenyl]vinyl}-1H-indazole] | – | inhibition at 10 µM [2]: 72%; inhibition at 3.16 µM [4]: 27%; inhibition at 3.16 µM [3]: 91%
CCN(CC)CCOc1ccc(/C=C/c2n[nH]c3ccccc23)cc1 [Compound 6, (E)-3-{2-[4-(2-diethylaminoethoxy)phenyl]vinyl}-1H-indazole hydrochloride] | – | inhibition at 10 µM [2]: 98%; inhibition at 3.16 µM [4]: 89%; inhibition at 3.16 µM [3]: 97%
CC(C)N(CCOc1ccc(/C=C/c2n[nH]c3ccccc23)cc1)C(C)C [Compound 7, (E)-3-{2-[4-(2-diisopropylaminoethoxy)phenyl]vinyl}-1H-indazole hydrochloride] | – | inhibition at 10 µM [2]: 93%; inhibition at 3.16 µM [4]: 89%; inhibition at 3.16 µM [3]: 97%
C(=C\c1n[nH]c2ccccc12)/c1ccc(OCCN2CCCCC2)cc1 [Compound 8, (E)-3-{2-[4-(2-piperidinoethoxy)phenyl]vinyl}-1H-indazole hydrochloride] | – | inhibition at 10 µM [2]: 94%; inhibition at 3.16 µM [4]: 90%; inhibition at 3.16 µM [3]: 97%
C(=C\c1n[nH]c2ccccc12)/c1ccc(OCCCN2CCCCC2)cc1 [Compound 9, (E)-3-{2-[4-(3-piperidinopropoxy)phenyl]vinyl}-1H-indazole hydrochloride] | – | inhibition at 10 µM [2]: 97%; inhibition at 3.16 µM [4]: 92%; inhibition at 3.16 µM [3]: 97%
COc1cc(/C=C/c2n[nH]c3ccccc23)ccc1OCCN1CCOCC1 [Compound 30, (E)-3-{2-[3-methoxy-4-(2-morpholinoethoxy)phenyl]vinyl}-1H-indazole hydrochloride] | 98.1 | –
Nc1cc(/C=C/c2n[nH]c3ccccc23)ccc1OCCN1CCOCC1 [Compound 38, (E)-3-{2-[3-amino-4-(2-morpholinoethoxy)phenyl]vinyl}-1H-indazole] | 99.2 | –
CS(=O)(=O)Nc1cc(/C=C/c2n[nH]c3ccccc23)ccc1OCCN1CCOCC1 [Compound 60, (E)-N-{5-[2-(1H-Indazol-3-yl)vinyl]-2-(2-morpholinoethoxy)phenyl}methanesulfonamide] | 90.2 | –
O=C(NCCN1CCOCC1)c1ccc(/C=C/c2n[nH]c3ccccc23)cc1 [Compound 61, (E)-N-(2-morpholinoethyl)-4-[2-(1H-indazol-3-yl)vinyl]benzamide] | 91 | –
CCN(CC)C(=O)c1ccc(/C=C/c2n[nH]c3ccccc23)cc1 [Compound 62, (E)-N,N-Diethyl-4-[2-(1H-indazol-3-yl)vinyl]benzamide hydrochloride] | 93.7 | –
CC(C)(C)OC(=O)N1CCN(C(=O)c2ccc(/C=C/c3n[nH]c4ccccc34)cc2)CC1 [Compound 63, (E)-4-{4-[2-(1H-indazol-3-yl)vinyl]benzoyl)piperazine-1-carboxylic acid 1,1-dimethylethylester] | 97.4 | –
O=C(c1ccc(/C=C/c2n[nH]c3ccccc23)cc1)N1CCNCC1 [Compound 64, (E)-1-{4-[2-(1H-indazol-3-yl)vinyl]benzoyl}piperazine] | 94.2 | –
O=CN1CCN(C(=O)c2ccc(/C=C/c3n[nH]c4ccccc34)cc2)CC1 [Compound 65, (E)-4-{4-[2-(1H-indazol-3-yl)vinyl]benzoyl}piperazine-1-carbaldehyde] | 94.4 | –
CCOC(=O)N1CCN(C(=O)c2ccc(/C=C/c3n[nH]c4ccccc34)cc2)CC1 [Compound 66, (E)-1-{4-[2-(1H-indazol-3-yl)vinyl]benzoyl}-4-ethoxycarbonylpiperazine] | 95.7 | –
O=C(c1ccncc1)N1CCN(C(=O)c2ccc(/C=C/c3n[nH]c4ccccc34)cc2)CC1 [Compound 67, (E)-1-{4-[2-(1H-indazol-3-yl)vinyl]benzoyl}-4-(isonicotinoyl)piperazine] | 96.4 | –
CCN(CC)CCNC(=O)c1ccc(/C=C/c2n[nH]c3ccccc23)cc1 [Compound 68, (E)-N-[2-(diethylamino)ethyl]-4-[2-(1H-indazol-3-yl)vinyl]benzamide] | 94.4 | –
COCC(=O)N1CCN(C(=O)c2ccc(/C=C/c3n[nH]c4ccccc34)cc2)CC1 [Compound 69, (E)-4-methoxyacetyl-1-{4-[2-(1H-indazol-3-yl)vinyl]benzoyl}piperazine] | 95.8 | –
O=C1CN(C(=O)c2ccc(/C=C/c3n[nH]c4ccccc34)cc2)CCN1 [Compound 70, (E)-4-{4-[2-(1H-indazol-3-yl)vinyl]benzoyl}piperadin-2-one] | – | Inhibitory activity on Flt-3 (%) [1]: 93.7%
NC1CCN(C(=O)c2ccc(/C=C/c3n[nH]c4ccccc34)cc2)C1 (centres unmarked) [Compound 71, (E)-1-{4-[2-(1H-indazol-3-yl)vinyl]benzoyl}-3-aminopyrrolidine dihydrochloride] | 95.2 | –
O=C(c1ccc(/C=C/c2n[nH]c3ccccc23)cc1)N1CCN(C(=O)[C@H]2CCNC2)CC1 [Compound 72, (S)-(E)-1-{4-[2-(1H-indazol-3-yl)vinyl]benzoyl}-4-(pyrrolidin-3-ylcarbonyl)piperazine dihydrochloride] | 95 | –
CC(C)(N)C(=O)N1CCN(C(=O)c2ccc(/C=C/c3n[nH]c4ccccc34)cc2)CC1.Cl.Cl [Compound 74, (E)-4-(2-amino-2-methylpropionyl)-1-{4-[2-(1H-indazol-3-yl)vinyl]benzoyl}piperazine dihydrochrolide] | – | Inhibitory activity on Flt-3 (%) [1]: 97.0%
CC(=O)N(C)CC(=O)N1CCN(C(=O)c2ccc(/C=C/c3n[nH]c4ccccc34)cc2)CC1 [Compound 75, (E)-4-(N-acetyl-N-methylaminoacetyl)-1-(4-[2-(1H-indazol-3-yl)vinyl]benzoyl}piperazine] | 95.1 | –
O=C(c1ccc(/C=C/c2n[nH]c3ccccc23)cc1)N1CCN(C(=O)[C@@H]2CCCN2)CC1 [Compound 76, (S)-(E)-4-[(pyrrolidin-2-yl)carbonyl]-1-{4-[2-(1H-indazol-3-yl)vinyl]benzoyl}piperazine] | 93.9 | –
CN1CCC(C(=O)N2CCN(C(=O)c3ccc(/C=C/c4n[nH]c5ccccc45)cc3)CC2)CC1 [Compound 77, (E)-4-[(1-methylpiperidin-4-yl)carbonyl]-1-(4-[2-(1H-indazol-3-yl)vinyl]benzoyl)piperazine] | 96.3 | –
NC1CCN(C(=O)c2ccc(/C=C/c3n[nH]c4ccccc34)cc2)CC1 [Compound 78, (E)-1-{4-[2-(1H-indazol-3-yl)vinyl]benzoyl}-4-aminopiperidine] | 95.7 | –
